In patent US6258811A, “Methods for preventing, inhibiting or treating graft rejection reactions in graft-versus-host disease (GVHD) and organ transplantation” (Eisai Co., Ltd., priority 1996, dated 2001):

Legend:
[1] = biological target: T1, RAR-β (Homo sapiens, UniProt P10826); experiment: RAR-mediated transcriptional promotion activity, RAR-β; type: cell-based; conditions: ED30 of all-trans-retinoic acid taken as 1; 3 μM all-trans-retinoic acid = 100%
T1 sequence (P10826 1-455): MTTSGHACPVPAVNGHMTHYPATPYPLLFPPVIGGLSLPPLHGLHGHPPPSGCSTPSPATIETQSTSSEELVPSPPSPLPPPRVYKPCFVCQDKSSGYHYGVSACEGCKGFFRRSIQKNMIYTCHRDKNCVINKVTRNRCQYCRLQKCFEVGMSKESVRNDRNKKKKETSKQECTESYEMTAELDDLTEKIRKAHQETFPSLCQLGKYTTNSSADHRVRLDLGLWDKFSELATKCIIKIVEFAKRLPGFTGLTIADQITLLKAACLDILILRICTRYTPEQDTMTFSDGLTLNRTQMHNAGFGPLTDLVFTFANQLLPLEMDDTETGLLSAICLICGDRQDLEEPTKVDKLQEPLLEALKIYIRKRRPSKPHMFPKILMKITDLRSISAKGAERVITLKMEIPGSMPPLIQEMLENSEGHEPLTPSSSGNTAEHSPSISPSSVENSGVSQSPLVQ
Text: (§1) Retinoic acid receptor (RAR) binding assay and RAR-mediated transcriptional promotion activity of compound represented by formula (I): […]

[2] = biological target: T2, RAR-α (Homo sapiens, UniProt P10276); experiment: RAR-mediated transcriptional promotion activity, RAR-α; type: cell-based; conditions: ED30 of all-trans-retinoic acid taken as 1; 3 μM all-trans-retinoic acid = 100%
T2 sequence (P10276 1-462): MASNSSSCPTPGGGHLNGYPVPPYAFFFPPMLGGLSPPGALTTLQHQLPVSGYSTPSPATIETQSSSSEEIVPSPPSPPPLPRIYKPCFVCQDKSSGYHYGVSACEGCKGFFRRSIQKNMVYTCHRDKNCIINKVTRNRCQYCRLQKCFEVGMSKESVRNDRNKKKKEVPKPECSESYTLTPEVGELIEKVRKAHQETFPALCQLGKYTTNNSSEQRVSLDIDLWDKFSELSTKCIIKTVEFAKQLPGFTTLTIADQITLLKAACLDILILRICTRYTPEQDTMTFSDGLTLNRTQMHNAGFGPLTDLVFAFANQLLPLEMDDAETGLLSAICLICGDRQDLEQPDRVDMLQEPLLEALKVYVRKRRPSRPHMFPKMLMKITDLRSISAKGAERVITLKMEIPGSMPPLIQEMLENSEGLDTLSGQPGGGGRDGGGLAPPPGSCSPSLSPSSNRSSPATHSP
Text: as §1

[3] = biological target: T3, RAR-γ (Homo sapiens, UniProt P13631); experiment: RAR-mediated transcriptional promotion activity, RAR-γ; type: cell-based; conditions: ED30 of all-trans-retinoic acid taken as 1; 3 μM all-trans-retinoic acid = 100%
T3 sequence (P13631 1-454): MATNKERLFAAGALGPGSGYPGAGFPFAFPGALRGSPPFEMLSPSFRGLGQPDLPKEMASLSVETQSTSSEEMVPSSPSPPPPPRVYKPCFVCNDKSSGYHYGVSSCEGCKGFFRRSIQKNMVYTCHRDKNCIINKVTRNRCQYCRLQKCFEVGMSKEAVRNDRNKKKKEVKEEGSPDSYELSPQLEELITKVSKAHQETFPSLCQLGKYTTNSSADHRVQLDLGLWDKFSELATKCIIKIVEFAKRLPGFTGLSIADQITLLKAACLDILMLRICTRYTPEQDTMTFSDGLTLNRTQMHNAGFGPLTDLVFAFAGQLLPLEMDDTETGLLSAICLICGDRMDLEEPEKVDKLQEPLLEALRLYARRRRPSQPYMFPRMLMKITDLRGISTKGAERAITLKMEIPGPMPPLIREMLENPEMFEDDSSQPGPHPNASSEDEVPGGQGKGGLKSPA
Text: as §1

[4] = tested on: immune system; conditions: background; cited from earlier work
[5] = biological target: T1, RAR-β; experiment: Receptor binding assay, RAR-β
Text: as §1

[6] = tested on: patients; conditions: background; cited from earlier work
[7] = tested on: serum antiDNA antibody titer (IgG class); experiment: Chronic GVHD model: serum antiDNA antibody titer (ELISA); type: in vivo, mice (BDF1 hosts, DBA/2 donors); conditions: oral, once a day, two weeks after cell transfer
Text: (§2) A graft-versus-host disease (GVHD) model experiment was effected in accordance with the method reported by Durei et al. (J. Clin. Invest., 94, 1333 1994.).
(§3) As the indication of an acute GVHD model (1), use was made of the cytotoxic T cell activity of a donor on a host. As the indication of a chronic GVHD model (2), use was made of the blood antiDNA antibody titer.
In the transplantation, BDF1 mice (H-2b/d) and DBA/2 mice (H-2d) were employed respectively as the hosts and donors. 5×10^7 /mouse of donors' spleen cells were transferred into the hosts via the tail vein. 4-{2-[5-(4,7-Dimethylbenzofuran-2-yl)pyrrolyl]}benzoic acid was dissolved in a 0.5% aqueous solution of methylcellulose and then orally administered to the hosts once a day from the first day of the cell transfer to the day before the blood sampling. The 0.5% aqueous solution of methylcellulose alone was similarly administered to the control group. Two weeks after the cell transfer, the blood of each host animal was sampled and the serum antiDNA antibody titer (IgG class) was measured by the ELISA method.

[8] = tested on: P-815(H-2d); experiment: Acute GVHD model: cytotoxic T cell activity of donor on host; type: in vivo, mice (BDF1 hosts, C57BL/6N donors); conditions: oral, once a day, 12 to 13 days after cell transfer
Text: as §2, §3
In the transplantation, BDF1 mice (H-2b/d) and C57BL/6N mice (H-2b) were employed respectively as the hosts and donors. 5×10^7 /mouse of donors' spleen cells were transferred into the hosts via the tail vein. 4-{2-[5-(4,7-Dimethylbenzofuran-2-yl)pyrrolyl]}benzoic acid (compound A) was suspended in a 0.5% aqueous solution of methylcellulose and then orally administered to the hosts once a day from the first day of the cell transfer to the day before the measurement of the cytotoxic T cell activity. The 0.5% aqueous solution of methylcellulose alone was similarly administered to the control group. 12 to 13 days after the cell transfer, the spleen of each host animal was taken out and a suspension of the spleen cells to be used as effector cells was prepared. As the target cells, use was made of P-815(H-2d) which were cultured together with the effector cells for 4 hours. The cytotoxicity (%) was expressed as the percentage of ^51 Cr liberated into the culture supernatant during this culture time to the total radioactivity.

[9] = tested on: chronic GVHD; conditions: cyclosporin A and prednisolone, bone marrow transplantation patients; cited from earlier work
[10] = tested on: rat adjuvant arthritis; conditions: Science 221, 756, 1983; cited from earlier work

SMILES	Transcriptional promotion activity, Relative ED30, RAR-β [1]	Transcriptional promotion activity, Relative ED30, RAR-α [2]	Transcriptional promotion activity, Relative ED30, RAR-γ [3]	further results
CC1(C)CCC(C)(C)c2nc(-c3ccc(-c4ccc(C(=O)O)cc4)[nH]3)cnc21	1.4	0.21	19	–
Cc1ccc(C)c2c(F)c(-c3ccc(-c4ccc(C(=O)O)cc4)[nH]3)oc12	2.8	0.39	31	–
CCc1ccc(C)c2cc(-c3ccc(-c4ccc(C(=O)O)cc4)[nH]3)oc12	24	0.26	120	–
O=C(O)c1ccc(-c2ccc(-c3cc4c(F)ccc(Cl)c4o3)[nH]2)cc1	91	0.33	790	–
O=C(O)c1ccc(-c2ccc(-c3cc4c(Cl)ccc(Cl)c4o3)[nH]2)cc1 [drawing 15]	160	1.0	1400	–
CC1=C(/C=C/C(C)=C/C=C/C(C)=C/C(=O)O)C(C)(C)CCC1 [retinoic acid]	–	–	–	effect on the immune system [4]: suppressive effect on the immune system
O=C(O)c1ccc(-c2ccc(-c3cc4c(Cl)ccc(Cl)c4o3)[nH]2)cc1 [drawing 8]	–	–	–	IC50 [5]: 500 nM
CN(Cc1cnc2nc(N)nc(N)c2n1)c1ccc(C(=O)N[C@@H](CCC(=O)O)C(=O)O)cc1 [methotrexate]	–	–	–	side effects [6]: bone marrow depression, hepatic/renal function disorder, mucosal disorder, psychoneurosis, interstitial pneumonia, pulmonary fibrosis, etc.
O=C(O)c1ccc(-c2ccc(-c3cc4c(C(F)(F)F)ccc(F)c4o3)[nH]2)cc1	8.1	0.33	95	–
Cc1ccc(C)c2oc(-c3ccc(-c4ccc(C(=O)O)cc4)[nH]3)cc12 [drawing 14]	13	0.4	191	–
Cc1ccc(C)c2oc(-c3ccc(-c4ccc(C(=O)O)cc4)[nH]3)cc12 [compound A, 4-{2-[5-(4,7-Dimethylbenzofuran-2-yl)pyrrolyl]}benzoic acid]	–	–	–	minimal effective dose ([7]; Mus musculus, 336 h, read-out: dose from which serum antiDNA antibody titer was inhibited dose-dependently): ≥ 0.3 mg/kg; serum antiDNA antibody titer [7]: strongly inhibited the serum antiDNA antibody titer dose-dependently; minimal effective dose ([8]; Mus musculus, P815, read-out: dose from which induction of the cytotoxic T cell activity was inhibited dose-dependently): ≥ 0.1 mg/kg; induction of the cytotoxic T cell activity [8]: strongly inhibited the induction of the cytotoxic T cell activity dose-dependently
C[C@]12C=CC(=O)C=C1CC[C@@H]1[C@@H]2[C@@H](O)C[C@@]2(C)[C@H]1CC[C@]2(O)C(=O)CO [prednisolone]	–	–	–	side effects [6]: induced infectious diseases, peptic ulcer, etc.; effect on chronic GVHD [9]: no satisfactory effect
Cn1cnc([N+](=O)[O-])c1Sc1ncnc2nc[nH]c12 [azathioprine]	–	–	–	side effects [6]: bone marrow depression, hepatic disorder, pancreatitis, digestive tract symptoms, cardiopalmus and respiratory disorder
CC1=C(/C=C/C(C)=C/C=C/C(C)=C\C(=O)O)C(C)(C)CCC1 [13-cis-retinoic acid]	–	–	–	secondary inflammation in rat adjuvant arthritis [10]: significantly suppressed
C=CC[C@@H]1/C=C(\C)C[C@H](C)C[C@H](OC)[C@H]2O[C@@](O)(C(=O)C(=O)N3CCCC[C@H]3C(=O)O[C@H](/C(C)=C/[C@@H]3CC[C@@H](O)[C@H](OC)C3)[C@H](C)[C@@H](O)CC1=O)[C@H](C)C[C@@H]2OC [tacrolimus (FK 506), tacrolimus]	–	–	–	side effects [6]: renal function disorder, shock, elevation of blood pressure, heart failure, pancreatitis,hemolytic-uremic syndrome, thrombotic thrombopenia, purpura and hyperglycemia
